The source of these data is ChEMBL document CHEMBL3784985, “Thiadiazole derivatives as New Class of β-glucuronidase inhibitors” (Bioorg Med Chem, 2016).

The assay has as its target T1, Beta-glucuronidase (Bos taurus, UniProt A3KMY8).
T1 sequence (A3KMY8 whole entry): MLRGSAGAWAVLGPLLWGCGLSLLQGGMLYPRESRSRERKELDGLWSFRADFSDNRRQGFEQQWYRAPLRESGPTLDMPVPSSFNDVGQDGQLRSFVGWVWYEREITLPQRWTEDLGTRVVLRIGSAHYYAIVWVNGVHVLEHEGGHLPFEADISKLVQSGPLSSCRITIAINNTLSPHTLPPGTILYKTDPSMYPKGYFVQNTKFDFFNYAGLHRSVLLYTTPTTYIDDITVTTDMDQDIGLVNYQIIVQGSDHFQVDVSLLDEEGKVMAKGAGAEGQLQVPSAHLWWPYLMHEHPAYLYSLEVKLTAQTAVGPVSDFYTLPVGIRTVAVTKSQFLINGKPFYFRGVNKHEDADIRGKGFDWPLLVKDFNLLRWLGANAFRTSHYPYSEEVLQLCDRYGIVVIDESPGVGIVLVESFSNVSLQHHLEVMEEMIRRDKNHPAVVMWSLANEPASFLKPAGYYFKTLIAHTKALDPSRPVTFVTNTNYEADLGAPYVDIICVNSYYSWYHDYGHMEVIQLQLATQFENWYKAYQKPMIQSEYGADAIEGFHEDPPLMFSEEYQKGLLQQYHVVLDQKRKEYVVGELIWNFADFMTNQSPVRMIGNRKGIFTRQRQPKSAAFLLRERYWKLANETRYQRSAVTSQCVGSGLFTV
Briefly: Inhibition of bovine beta-glucuronidase assessed as p-nitrophenol formation preincubated for 30 mins followed by addition of p-nitrophenyl-beta-D-glucuronide by spectrophotometric analysis.

One may read the IC50 as the concentration at which inhibition is half-maximal. On to `Cc1ccc(Nc2nnc(-c3ccc(C(C)(C)C)cc3)s2)cc1`, for which the 50% inhibitory concentration (IC50) amounted to 26.3 µM. As for `Brc1ccc(-c2nnc(Nc3ccccc3)s2)cc1`, the IC50 came out at 40.2 µM. The result for `Cc1ccc(Nc2nnc(-c3ccc(Br)cc3)s2)cc1` reads 28.6 µM; that for `COc1ccc(-c2nnc(Nc3ccc(C)cc3)s2)c(OC)c1`, 39.3 µM.

For `Cc1ccc(-c2nnc(Nc3ccc(Cl)c(Cl)c3)s2)c(C)c1`, the half-maximal inhibitory concentration (IC50) worked out at 15.6 µM. For `Clc1ccc(Nc2nnc(-c3ccccc3)s2)cc1Cl`, the IC50 is 6.28 µM. The result for `COc1cccc(Nc2nnc(-c3ccc(Br)cc3)s2)c1` reads 31.1 µM; that for `Clc1ccccc1-c1nnc(Nc2cccc(Br)c2)s1`, 8.96 µM; that for `COc1ccccc1-c1nnc(Nc2ccc(C)cc2)s1`, 58.1 µM. Take `COc1ccc(Nc2nnc(-c3ccccc3Cl)s2)cc1`: the concentration for half-maximal inhibition (IC50) was 22.6 µM.

Consider `COc1cc(OC)cc(-c2nnc(Nc3ccc(Cl)c(Cl)c3)s2)c1`, for which the IC50 was 19.2 µM. The same measure for `Cc1ccc(Nc2nnc(-c3ccccc3Cl)s2)cc1`: 16.7 µM. The same measure for `Clc1ccc(Nc2nnc(-c3ccc(Br)cc3)s2)cc1Cl`: 7.16 µM; for `COc1ccccc1-c1nnc(Nc2ccc(Cl)c(Cl)c2)s1`: 22.6 µM; for `COc1ccccc1-c1nnc(Nc2cccc(Br)c2)s1`: 49.2 µM. For the molecule `Cc1ccc(-c2nnc(Nc3cccc(Br)c3)s2)c(C)c1`, the concentration for half-maximal inhibition (IC50) stood at 36.1 µM. For the molecule `Cc1ccc(Nc2nnc(-c3ccccc3)s2)cc1`, the half-maximal inhibitory concentration (IC50) worked out at 48.4 µM. The result for `COc1cc(OC)cc(-c2nnc(Nc3ccc(C)cc3)s2)c1` reads 50.3 µM. Take `Brc1ccc(-c2nnc(Nc3cccc(Br)c3)s2)cc1`: the half-maximal inhibitory concentration (IC50) turned out to be 17.3 µM. The same measure for `CC(C)(C)c1ccc(-c2nnc(Nc3ccc(Br)cc3)s2)cc1`: 32.2 µM; for `Cc1ccc(Nc2nnc(-c3ccc(C)cc3C)s2)cc1`: 34.2 µM; for `COc1ccc(-c2nnc(Nc3ccc(Br)cc3)s2)c(OC)c1`: 29.7 µM.
